Results: patent US4520026A, “Indolizine derivatives and use as cardiovascular agents” (S. A. Labaz N.V., priority 1982, dated 1985)

Tests used:
[1] = tested on: epinephrine-increased blood-pressure (anti-α effect); test: Antiadrenergic effect: anti-α effect (reduction of epinephrine-increased blood-pressure); assay type: in vivo; conditions: dog
Protocol: (§1) The purpose of this test was to determine the capacity of the compounds under study to reduce epinephrine-increased blood-pressure (anti-α effect) and epinephrine-accelerated heart rate (anti-β effect) in the dog previously anaesthetized with pentobarbital and atropinized.
(§2) For each dog, the dose of epinephrine was first determined which provoked a reproductible increase by about 100 mm. Hg in the arterial pressure (between 5 and 10 μg/kg). After that, the dose of epinephrine so determined was administered followed by a dose by intravenous route of the compound to be studied. The percentage of reduction of the hypertension provoked by the compound under study in comparison with the hypertension previously obtained (about 100 mm. Hg) was then registered.
(§3) The percentage of reduction of the epinephrine-induced acceleration of heart-rate produced by the compound under study in comparison with the tachycardia previously measured (about 70 beats) was then registered. In both cases, the results were expressed as follows: […]
(§4) + for a <50%-reduction of the increase in pressure or cardiac frequency
(§5) ++ for a ≥50%-reduction of the increase in pressure or cardiac frequency
(§6) +++ for a subtotal reduction of the increase in pressure or cardiac frequency

[2] = tested on: blood-flow to the myocardium; test: Effect on blood-flow to the myocardium, anaesthetized dogs, intravenous; assay type: in vivo, dog
Protocol: It was undertaken on anaesthetized dogs which received the substance under study by intravenous route. The intensity of the maximum effect on blood-flow to the myocardium was expressed in percentage of the corresponding value before injection. The time required for the maximum effect to decrease by 50% represented the duration of the effect. This time was measured in minutes.

[3] = Acute toxicity by intravenous route to rats; assay type: in vivo; conditions: rat, in vivo, oxalate acid form except those marked (hydrochloride)
Protocol: (§7) Acute toxicity tests were carried out on rats and mice. The following results were registered in comparison with butoprozine. The compounds of the invention were used in oxalate acid form except those marked (x) which were tested in hydrochloride form.

[4] = tested on: epinephrine-accelerated heart rate (anti-β effect); test: Antiadrenergic effect: anti-β effect (reduction of epinephrine-accelerated heart rate); assay type: in vivo; conditions: dog; for inhibition in vivo at 5 mg/kg: dose 5 mg/kg i.v.
Protocol: as §1, §2, §3, §4, §5, §6

[5] = Acute toxicity by intravenous route to mice; conditions: mouse, in vivo, oxalate acid form except those marked (hydrochloride)
Protocol: as §7

rats = test: Acute toxicity by intravenous route to rats; assay type: in vivo; conditions: oxalate acid form except those marked (hydrochloride)
Protocol: as §7

ventricular fibrillation = test: Anti-arrhythmic properties, LAWSON test (chloroform-provoked arrhythmia), intragastric; assay type: in vivo; conditions: Mus musculus, po, mice, read-out: AD50 (dose protecting 50% of the animals against ventricular fibrillation)
Protocol: The arrhythmia was provoked by making the animals inhale chloroform to total asphyxia and by later observing the ventricular rhythm. The dose of compound protecting 50% of the animals against ventricular fibrillation i.e. the AD50 was then recorded.

[6] = Canis lupus familiaris, iv, dose 10 mg/kg i.v.
[7] = Canis lupus familiaris, iv, dose 10 mg/kg i.v., anaesthetized dog, read-out: Max. increase (blood-flow to the myocardium)
[8] = dose 10 mg/kg i.v., anaesthetized dog
[9] = Canis lupus familiaris, iv, dose 5 mg/kg i.v., anaesthetized dog, read-out: Max. increase (blood-flow to the myocardium)
[10] = dose 5 mg/kg i.v., anaesthetized dog

CCCCN(CCCC)CCCOc1c(Cl)cc(C(=O)c2c(C(C)C)cc3ccccn23)cc1Cl [H/Cl/Cl/iso-C3H7/n-C4H9/3, 2-Isopropyl-3-[4-(3-di-n-butylaminopropyl)-oxy-3,5-dichloro-benzoyl]-indolizine]
inhibition in vivo at 10 mg/kg [1, 6]: > 50%
change in vivo at 10 mg/kg [2, 7]: 30%
Time required to decrease to 50% (duration of effect) [2, 8]: 75 min
LD50 [3]: > 100 mg/kg
inhibition in vivo at 10 mg/kg [4, 6]: > 50%

CCCCN(CCCC)CCCOc1ccc(C(=O)c2c(CC)c(Cl)c3ccccn23)cc1Cl [Cl/Cl/H/C2H5/n-C4H9/3, 1-Chloro-2-ethyl-3-[4-(3-di-n-butylaminopropyl)-oxy-3-chloro-benzoyl]-indolizine]
Anti-α effect ([1]; dose 0.5 mg/kg i.v.): +++
change in vivo at 1 mg/kg ([2]; Canis lupus familiaris, iv, dose 1 mg/kg i.v., anaesthetized dog, read-out: Max. increase (blood-flow to the myocardium)): 40%
Time required to decrease to 50% (duration of effect) ([2]; dose 1 mg/kg i.v., anaesthetized dog): 15 min
LD50 [3]: 50 mg/kg
inhibition in vivo at 0.5 mg/kg ([4]; Canis lupus familiaris, iv, dose 0.5 mg/kg i.v.): < 50%

CCCCc1cc2ccccn2c1C(=O)c1ccc(OCCCN(CCC)CCC)c(C)c1 [H/CH3/H/n-C4H9/n-C3H7/3, 2-n-Butyl-3-[4-(3-di-n-propylaminopropyl)-oxy-3-methyl-benzoyl]-indolizine]
LD50 [5]: > 50 mg/kg
inhibition in vivo at 5 mg/kg ([1]; Canis lupus familiaris, iv, dose 5 mg/kg i.v.): > 50%
inhibition in vivo at 5 mg/kg ([4]; Canis lupus familiaris, iv): < 50%

CCCCN(CCCC)CCCOc1ccc(C(=O)c2c(-c3ccccc3)c(Br)c3ccccn23)cc1Cl.Cl [(*)Br/Cl/H/drawing 49/n-C4H9/3, 1-Bromo-2-phenyl-3-[4-(3-di-n-butylaminopropyl)-oxy-3-chloro-benzoyl]-indolizine hydrochloride]
LD50 [3]: > 100 mg/kg

CCCCN(CCCC)CCCOc1ccc(C(=O)c2c(CC)c(Br)c3ccccn23)cc1Br [Br/Br/H/C2H5/n-C4H9/3, 1-Bromo-2-ethyl-3-[4-(3-di-n-butylaminopropyl)-oxy-3-bromo-benzoyl]-indolizine]
Anti-α effect ([1]; dose 10 mg/kg i.v.): +++
change in vivo at 10 mg/kg [2, 7]: 60%
Time required to decrease to 50% (duration of effect) [2, 8]: 90 min
Anti-β effect ([4]; dose 10 mg/kg i.v.): +++

CCCCN(CCCC)CCCOc1ccc(C(=O)c2c(-c3ccc(Cl)cc3)c(Br)c3ccccn23)cc1Cl [Br/Cl/H/drawing 50/n-C4H9/3]
LD0 (rats): > 100 mg/kg
LD50 [3]: > 100 mg/kg

CCCCN(CCCC)CCCOc1ccc(C(=O)c2c(CC)cc3ccccn23)cc1Cl [H/Cl/H/C2H5/n-C4H9/3, 2-Ethyl-3-[4-(3-di-n-butylaminopropyl)-oxy-3-chloro-benzoyl]-indolizine]
Anti-α effect ([1]; dose 6 mg/kg i.v.): +++
change in vivo at 6 mg/kg ([2]; Canis lupus familiaris, iv, dose 6 mg/kg i.v., anaesthetized dog, read-out: Max. increase (blood-flow to the myocardium)): 70%
Time required to decrease to 50% (duration of effect) ([2]; dose 6 mg/kg i.v., anaesthetized dog): 45 min
inhibition in vivo at 6 mg/kg ([4]; Canis lupus familiaris, iv, dose 6 mg/kg i.v.): > 50%

CCCCN(CCCC)CCCOc1c(C)cc(C(=O)c2c(CC)c(I)c3ccccn23)cc1C [I/CH3/CH3/C2H5/n-C4H9/3, 1-Iodo-2-ethyl-3-[4-(3-di-n-butylaminopropyl)-oxy-3,5-dimethyl-benzoyl]-indolizine]
ED50 (ventricular fibrillation): 100 mg/kg
Anti-α effect ([1]; dose 10 mg/kg i.v.): +++
Anti-β effect ([4]; dose 10 mg/kg i.v.): +++

CCCN(CCC)CCCOc1ccc(C(=O)c2c(C(C)C)cc3ccccn23)cc1Cl [H/Cl/H/iso-C3H7/n-C3H7/3, 2-Isopropyl-3-[4-(3-di-n-propylaminopropyl)-oxy-3-chloro-benzoyl]-indolizine]
inhibition in vivo at 10 mg/kg [1, 6]: > 50%
change in vivo at 5 mg/kg [2, 9]: 80%
Time required to decrease to 50% (duration of effect) [2, 10]: 90 min
inhibition in vivo at 10 mg/kg [4, 6]: > 50%

CCCCc1c(Br)c2ccccn2c1C(=O)c1ccc(OCCCN(CCC)CCC)c(Cl)c1 [Br/Cl/H/n-C4H9/n-C3H7/3, 1-Bromo-2-n-butyl-3-[4-(3-di-n-propylaminopropyl)-oxy-3-chloro-benzoyl]-indolizine]
inhibition in vivo at 10 mg/kg [1, 6]: > 50%
change in vivo at 10 mg/kg [2, 7]: 40%
Time required to decrease to 50% (duration of effect) [2, 8]: 90 min
inhibition in vivo at 10 mg/kg [4, 6]: < 50%

CCCCN(CCCC)CCCOc1c(C)cc(C(=O)c2c(C)c(Br)c3ccccn23)cc1C [Br/CH3/CH3/CH3/n-C4H9/3, 1-Bromo-2-methyl-3-[4-(3-di-n-butylaminopropyl)-oxy-3,5-dimethyl-benzoyl]-indolizine]
ED50 (ventricular fibrillation): < 100 mg/kg
Anti-α effect ([1]; dose 10 mg/kg i.v.): +++
inhibition in vivo at 10 mg/kg [4, 6]: > 50%

CCCCc1cc2ccccn2c1C(=O)c1ccc(OCCCN(CCCC)CCCC)c(Br)c1 [H/Br/H/n-C4H9/n-C4H9/3, 2-n-Butyl-3-[4-(3-di-n-butylaminopropyl)-oxy-3-bromo-benzoyl]-indolizine]
ED50 (ventricular fibrillation): 170 mg/kg
Anti-α effect ([1]; dose 5 mg/kg i.v.): +++
Anti-α effect ([1]; dose 10 mg/kg i.v.): +++
change in vivo at 5 mg/kg [2, 9]: 70%
Time required to decrease to 50% (duration of effect) [2, 10]: 60 min
LD50 [3]: 60 mg/kg
inhibition in vivo at 5 mg/kg ([4]; Canis lupus familiaris, iv): > 50%
Anti-β effect ([4]; dose 10 mg/kg i.v.): +++

CCCCc1c(C)c2ccccn2c1C(=O)c1ccc(OCCCN(CCC)CCC)c(Br)c1 [CH3/Br/H/n-C4H9/n-C3H7/3, 1-Methyl-2-n-butyl-3-[4-(3-di-n-propylaminopropyl)-oxy-3-bromo-benzoyl]-indolizine]
LD50 [5]: 50 mg/kg

CCCCc1oc2ccccc2c1C(=O)c1cc(I)c(OCCN(CC)CC)c(I)c1 [Amiodarone, reference compound]
inhibition in vivo at 10 mg/kg [1, 6]: > 50%
change in vivo at 10 mg/kg [2, 7]: 36%
Coronarodilating effect / blood-flow to the myocardium, in words ([2]; comparative): cannot be regarded as a coronarodilator
Time required to decrease to 50% (duration of effect) [2, 8]: 7 min
inhibition in vivo at 10 mg/kg [4, 6]: > 50%

CCCCc1c(Cl)c2ccccn2c1C(=O)c1ccc(OCCCN(CCCC)CCCC)cc1 [Cl/H/H/n-C4H9/n-C4H9/3, 1-Chloro-2-n-butyl-3-[4-(3-di-n-butylaminopropyl)-oxy-benzoyl]-indolizine]
Anti-α effect ([1]; dose 10 mg/kg i.v.): +++
change in vivo at 10 mg/kg [2, 7]: 60%
Time required to decrease to 50% (duration of effect) [2, 8]: 30 min
LD50 [3]: 50 mg/kg
inhibition in vivo at 10 mg/kg [4, 6]: > 50%

CCCN(CCC)CCCOc1ccc(C(=O)c2c(CC)c(Cl)c3ccccn23)cc1Cl [Cl/Cl/H/C2H5/n-C3H7/3, 1-Chloro-2-ethyl-3-[4-(3-di-n-propylaminopropyl)-oxy-3-chloro-benzoyl]-indolizine]
Anti-α effect ([1]; dose 3.3 mg/kg i.v.): +++
change in vivo at 3.3 mg/kg ([2]; Canis lupus familiaris, iv, dose 3.3 mg/kg i.v., anaesthetized dog, read-out: Max. increase (blood-flow to the myocardium)): 60%
Time required to decrease to 50% (duration of effect) ([2]; dose 3.3 mg/kg i.v., anaesthetized dog): 25 min
Anti-β effect ([4]; dose 3.3 mg/kg i.v.): +++

CCCCN(CCCC)CCCOc1ccc(C(=O)c2c(CC)cc3ccccn23)cc1Cl.Cl [(*)H/Cl/H/C2H5/n-C4H9/3, 2-Ethyl-3-[4-(3-di-n-butylaminopropyl)-oxy-3-chloro-benzoyl]-indolizine hydrochloride]
LD50 [3]: 65 mg/kg

CCCCc1cc2ccccn2c1C(=O)c1ccc(OCCCN(CCCC)CCCC)c(Cl)c1.Cl [(*)H/Cl/H/n-C4H9/n-C4H9/3, 2-n-butyl-3-[4-(3-di-n-butylaminopropyl)-oxy-3-chloro-benzoyl]-indolizine hydrochloride]
LD0 (rats): > 50 mg/kg
LD50 [3]: > 50 mg/kg

CCCCc1cc2ccccn2c1C(=O)c1ccc(OCCCN(CCCC)CCCC)c(Cl)c1 [H/Cl/H/n-C4H9/n-C4H9/3, 2-n-Butyl-3-[4-(3-di-n-butylaminopropyl)-oxy-3-chloro-benzoyl]-indolizine]
Anti-α effect ([1]; dose 10 mg/kg i.v.): +++
change in vivo at 5 mg/kg [2, 9]: 75%
Time required to decrease to 50% (duration of effect) [2, 10]: 30 min
inhibition in vivo at 10 mg/kg [4, 6]: > 50%

CCCN(CCC)CCCOc1ccc(C(=O)c2c(-c3ccc(Cl)cc3)c(Br)c3ccccn23)cc1Cl [Br/Cl/H/drawing 19/n-C3H7/3]
change in vivo at 10 mg/kg [2, 7]: 63%
Time required to decrease to 50% (duration of effect) [2, 8]: 45 min

CCCCN(CCCC)CCCOc1ccc(C(=O)c2c(CCC)c(Br)c3ccccn23)cc1Cl [Br/Cl/H/n-C3H7/n-C4H9/3, 1-Bromo-2-n-propyl-3-[4-(3-di-n-butylaminopropyl)-oxy-3-chloro-benzoyl]-indolizine]
Anti-α effect ([1]; dose 10 mg/kg i.v.): +++
change in vivo at 2.5 mg/kg ([2]; Canis lupus familiaris, iv, dose 2.5 mg/kg i.v., anaesthetized dog, read-out: Max. increase (blood-flow to the myocardium)): 50%
Time required to decrease to 50% (duration of effect) ([2]; dose 2.5 mg/kg i.v., anaesthetized dog): 60 min
Anti-β effect ([4]; dose 10 mg/kg i.v.): +++
